From patent US12458021B2, “Microbiocidal derivatives” (SYNGENTA CROP PROTECTION AG, priority 2019, dated 2025)

Legend:
Alternaria solani = Alternaria solani / tomato / leaf disc (early blight); type: in vivo; settings: foliar, tomato leaf disks cv. Baby, inoculated 2 days after application, assessed 5-7 days after application, read-out: control of Alternaria solani (percent disease control compared to untreated)
Method: Example B1: Alternaria solani/Tomato/Leaf Disc (Early Blight) Tomato leaf disks cv. Baby are placed on agar in multiwell plates (24-well format) and sprayed with the formulated test compound diluted in water. The leaf disks are inoculated with a spore suspension of the fungus 2 days after application. The inoculated leaf disks are incubated at 23° C./21° C. […] […]-185.

[1] = tested on: Glomerella lagenarium (Colletotrichum lagenarium); assay: Glomerella lagenarium (Colletotrichum lagenarium) / liquid culture (anthracnose); type: cell-based; settings: Colletotrichum orbiculare, PDB potato dextrose broth, 24° C., 3-4 days after application, read-out: control of Glomerella lagenarium (inhibition of growth, photometric)
Method in brief: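 Fungal growth inhibition measured photometrically 3-4 days post-application at 24° C. Spores were mixed directly into potato dextrose broth and dispensed onto test compound supplied in DMSO.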

[2] = tested on: Blumeria graminis f. sp. tritici (Erysiphe graminis f. sp. tritici); assay: Blumeria graminis f. sp. tritici / wheat / leaf disc preventative (powdery mildew on wheat); type: in vivo; settings: foliar, wheat leaf segments cv. Kanzler, inoculated 1 day after application, assessed 6-8 days after application, read-out: control of Blumeria graminis f. sp. tritici (percent disease control compared to untreated)
Text: Example B4: Blumeria graminis f. sp. tritici (Erysiphe graminis f. sp. tritici)/Wheat/Leaf Disc Preventative (Powdery Mildew on Wheat) Wheat leaf segments cv. Kanzler are placed on agar in a multiwell plate (24-well format) and sprayed with the formulated test compound diluted in water. The leaf disks are inoculated by shaking powdery mildew infected plants above the test plates 1 day after application. […] […]-192.

[3] = tested on: Monographella nivalis (Microdochium nivale); assay: Monographella nivalis (Microdochium nivale) / liquid culture (foot rot cereals); type: cell-based; settings: PDB potato dextrose broth, 24° C., 4-5 days after application, read-out: control of Monographella nivalis (inhibition of growth, photometric)
Method in brief: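 Growth inhibition measured by photometry 4-5 days post-application at 24° C. Compound was dispensed as DMSO solution, then PDB broth containing conidia from cryogenic storage was added.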

[4] = tested on: Mycosphaerella graminicola (Septoria tritici); assay: Mycosphaerella graminicola (Septoria tritici) / liquid culture (Septoria blotch); type: cell-based; settings: Zymoseptoria tritici, PDB potato dextrose broth, 24° C., 4-5 days after application, read-out: control of Mycosphaerella graminicola (inhibition of growth, photometric)
Method in brief: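 Fungal growth inhibition was read photometrically 4-5 days after application. Compound was dosed from a DMSO solution into liquid cultures of spores in potato dextrose broth, incubated at 24° C.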

[5] = tested on: Magnaporthe grisea (Pyricularia oryzae); assay: whole plant or invertebrate; type: in vivo; settings: foliar, read-out: control of Magnaporthe grisea (percent disease control compared to untreated)
[6] = tested on: Puccinia recondita f. sp. tritici; assay: Puccinia recondita f. sp. tritici / wheat / leaf disc preventative (brown rust); type: in vivo; settings: foliar, wheat leaf segments cv. Kanzler, inoculated 1 day after application, assessed 7-9 days after application, read-out: control of Puccinia recondita f. sp. tritici, preventative (percent disease control compared to untreated)
Method: Example B11: Puccinia recondita f. sp. tritici/Wheat/Leaf Disc Preventative (Brown Rust) Wheat leaf segments cv. Kanzler are placed on agar in multiwell plates (24-well format) and sprayed with the formulated test compound diluted in water. The leaf disks are inoculated with a spore suspension of the fungus 1 day after application. The inoculated leaf segments are incubated at 19° C. and 75% rh under a light regime of 12 h light/12 h darkness in a climate cabinet and the activity of a compound is assessed as percent disease control compared to untreated when an appropriate level of disease damage appears in untreated check leaf segments (7-9 days after application). […] […]-190.

Pyrenophora teres = Pyrenophora teres / barley / leaf disc preventative (net blotch); type: in vivo; settings: foliar, barley leaf segments cv. Hasso, inoculated 2 days after application, assessed 5-7 days after application, read-out: control of Pyrenophora teres (disease control compared to untreated)
Method: Example B13: Pyrenophora teres/Barley/Leaf Disc Preventative (Net Blotch) Barley leaf segments cv. Hasso are placed on agar in a multiwell plate (24-well format) and sprayed with the formulated test compound diluted in water. The leaf segments are inoculated with a spore suspension of the fungus 2 days after application. The inoculated leaf segments are incubated at 20° C. and 65% rh under a light regime of 12 h light/12 h darkness in a climate cabinet and the activity of a compound is assessed as disease control compared to untreated when an appropriate level of disease damage appears in untreated check leaf segments (5-7 days after application). […] […]-185.

COc1ccc(Nc2cnsc2)nc1C(=O)NCC1(C(F)(F)F)CC1 [Compound P-83, 6-(isothiazol-4-ylamino)-3-methoxy-N-[[1-(trifluoromethyl)cyclopropyl]methyl]pyridine-2-carboxamide]
≥ 80%: pest or weed control at 200 ppm (Alternaria solani) | inhibition at 20 ppm [1] | pest or weed control at 200 ppm [2] | inhibition at 20 ppm [3] | inhibition at 20 ppm [4]

COc1ccc(Nc2cc(F)cc(F)c2)nc1C(=O)NC1COC(C2CC2)C1 (stereo not shown) [Compound P-65, N-(5-cyclopropyltetrahydrofuran-3-yl)-6-(3,5-difluoroanilino)-3-methoxy-pyridine-2-carboxamide]
≥ 80%: pest or weed control at 200 ppm (Alternaria solani) | inhibition at 20 ppm [1] | pest or weed control at 200 ppm [2] | inhibition at 20 ppm [3] | pest or weed control at 200 ppm [5] | inhibition at 20 ppm [4]

CC(C)Oc1ccc(Nc2cc(F)cc(F)c2)nc1C(=O)NC1CCC1(C)C (stereo not shown) [Compound P-87, 6-(3,5-difluoroanilino)-N-(2,2-dimethylcyclobutyl)-3-isopropoxy-pyridine-2-carboxamide]
≥ 80%: pest or weed control at 200 ppm (Alternaria solani) | inhibition at 20 ppm [1] | inhibition at 20 ppm [3] | pest or weed control at 200 ppm [5]

C#CCOc1ccc(Nc2cc(F)cc(F)c2)nc1C(=O)NC1CCC1(C)C (stereo not shown) [Compound P-86, 6-(3,5-difluoroanilino)-N-(2,2-dimethylcyclobutyl)-3-prop-2-ynoxy-pyridine-2-carboxamide]
≥ 80%: pest or weed control at 200 ppm (Alternaria solani) | inhibition at 20 ppm [1] | inhibition at 20 ppm [3]

COc1ccc(Nc2cc(F)cc(F)c2)nc1C(=O)NCc1c(Cl)cncc1Cl [Compound P-66, N-[(3,5-dichloro-4-pyridyl)methyl]-6-(3,5-difluoroanilino)-3-methoxy-pyridine-2-carboxamide]
≥ 80%: pest or weed control at 200 ppm (Alternaria solani) | inhibition at 20 ppm [1] | inhibition at 20 ppm [3] | pest or weed control at 200 ppm [5] | inhibition at 20 ppm [4]

COc1ccc(Nc2cc(F)cc(F)c2)nc1C(=O)NC1COC2(CC2)C1 (stereo not shown) [Compound P-70, 6-(3,5-difluoroanilino)-3-methoxy-N-(4-oxaspiro[2.4]heptan-6-yl)pyridine-2-carboxamide]
≥ 80%: pest or weed control at 200 ppm (Alternaria solani) | inhibition at 20 ppm [1] | pest or weed control at 200 ppm [2] | inhibition at 20 ppm [3] | pest or weed control at 200 ppm [6] | pest or weed control at 200 ppm [5] | inhibition at 20 ppm [4]

COc1ccc(Nc2cc(F)nc(F)c2)nc1C(=O)NC1(C#N)CCCC1 [Compound P-125, N-(1-cyanocyclopentyl)-6-[(2,6-difluoro-4-pyridyl)amino]-3-methoxy-pyridine-2-carboxamide]
≥ 80%: pest or weed control at 200 ppm (Alternaria solani) | pest or weed control at 200 ppm [2] | pest or weed control at 200 ppm [6] | pest or weed control at 200 ppm [5]

COc1ccc(Nc2cc(F)nc(F)c2)nc1C(=O)NC1(C)CCCCC1 [Compound P-110, 6-[(2,6-difluoro-4-pyridyl)amino]-3-methoxy-N-(1-methylcyclohexyl)pyridine-2-carboxamide]
≥ 80%: pest or weed control at 200 ppm (Alternaria solani) | inhibition at 20 ppm [1] | pest or weed control at 200 ppm [2] | inhibition at 20 ppm [3] | pest or weed control at 200 ppm [6] | pest or weed control at 200 ppm [5] | inhibition at 20 ppm [4]

COc1ccc(Nc2cc(F)cc(F)c2)nc1C(=O)NC1CCS(=O)(=O)CC1 [Compound P-78, 6-(3,5-difluoroanilino)-N-(1,1-dioxothian-4-yl)-3-methoxy-pyridine-2-carboxamide]
≥ 80%: pest or weed control at 200 ppm (Alternaria solani)

COc1ccc(Nc2cc(F)nc(F)c2)nc1C(=O)NCCC(C)C [Compound P-29, 6-[(2,6-difluoro-4-pyridyl)amino]-N-isopentyl-3-methoxy-pyridine-2-carboxamide]
≥ 80%: inhibition at 20 ppm [1] | pest or weed control at 200 ppm [2] | inhibition at 20 ppm [3] | pest or weed control at 200 ppm [6] | pest or weed control at 200 ppm [5] | pest or weed control at 200 ppm (Pyrenophora teres) | inhibition at 20 ppm [4]

COc1ccc(Nc2cc(F)cc(F)c2)nc1C(=O)NCC1(C)CCOC1 (stereo not shown) [Compound P-68, 6-(3,5-difluoroanilino)-3-methoxy-N-[(3-methyltetrahydrofuran-3-yl)methyl]pyridine-2-carboxamide]
≥ 80%: pest or weed control at 200 ppm (Alternaria solani) | inhibition at 20 ppm [1] | pest or weed control at 200 ppm [2] | inhibition at 20 ppm [3] | pest or weed control at 200 ppm [5] | inhibition at 20 ppm [4]

COc1ccc(Nc2cc(F)cc(F)c2)nc1C(=O)NC1(c2cccc(Cl)n2)CCC1 [Compound P-177, N-[1-(6-chloro-2-pyridyl)cyclobutyl]-6-(3,5-difluoroanilino)-3-methoxy-pyridine-2-carboxamide]
≥ 80%: inhibition at 20 ppm [1] | pest or weed control at 200 ppm [2] | inhibition at 20 ppm [3] | pest or weed control at 200 ppm [6] | pest or weed control at 200 ppm [5] | inhibition at 20 ppm [4]

COc1ccc(Nc2cc(Cl)cc(Cl)c2)nc1C(=O)NC(C)(C)C [Compound P-148, N-tert-butyl-6-(3,5-dichloroanilino)-3-methoxy-pyridine-2-carboxamide]
≥ 80%: pest or weed control at 200 ppm (Alternaria solani) | inhibition at 20 ppm [1] | inhibition at 20 ppm [3] | pest or weed control at 200 ppm [6] | pest or weed control at 200 ppm [5] | inhibition at 20 ppm [4]

COc1ccc(Nc2cc(F)nc(F)c2)nc1C(=O)NC1CCC12CCCC2 (stereo not shown) [Compound P-6, 6-[(2,6-difluoro-4-pyridyl)amino]-3-methoxy-N-spiro[3.4]octan-3-yl-pyridine-2-carboxamide]
≥ 80%: pest or weed control at 200 ppm (Alternaria solani) | inhibition at 20 ppm [1] | pest or weed control at 200 ppm [2] | inhibition at 20 ppm [3] | pest or weed control at 200 ppm [6] | pest or weed control at 200 ppm [5] | pest or weed control at 200 ppm (Pyrenophora teres) | inhibition at 20 ppm [4]

COc1ccc(Nc2cc(F)cc(F)c2)[n+]([O-])c1C(=O)NC(C)(C)C [Compound P-117, N-tert-butyl-6-(3,5-difluoroanilino)-3-methoxy-1-oxido-pyridin-1-ium-2-carboxamide]
≥ 80%: inhibition at 20 ppm [1] | pest or weed control at 200 ppm [2] | inhibition at 20 ppm [3] | pest or weed control at 200 ppm [6] | pest or weed control at 200 ppm [5] | inhibition at 20 ppm [4]

COc1ccc(Nc2cc(F)cc(F)c2)nc1C(=O)NC1C2CCOC2C1(C)C (stereo not shown) [Compound P-76, 6-(3,5-difluoroanilino)-N-(7,7-dimethyl-2-oxabicyclo[3.2.0]heptan-6-yl)-3-methoxy-pyridine-2-carboxamide]
≥ 80%: pest or weed control at 200 ppm (Alternaria solani) | inhibition at 20 ppm [1] | pest or weed control at 200 ppm [2] | inhibition at 20 ppm [3] | pest or weed control at 200 ppm [6] | pest or weed control at 200 ppm [5] | pest or weed control at 200 ppm (Pyrenophora teres) | inhibition at 20 ppm [4]

COc1ccc(Nc2cc(F)cc(F)c2)nc1C(=O)NCC1COc2ccccc21 (stereo not shown) [Compound P-60, 6-(3,5-difluoroanilino)-N-(2,3-dihydrobenzofuran-3-ylmethyl)-3-methoxy-pyridine-2-carboxamide]
≥ 80%: pest or weed control at 200 ppm (Alternaria solani) | inhibition at 20 ppm [1] | inhibition at 20 ppm [3] | pest or weed control at 200 ppm [5] | inhibition at 20 ppm [4]
